This assay can be described thus: Antagonist activity at human recombinant CCR5 expressed in human HeLa-P4 cells assessed as inhibition of human HeLa-P4 cells binding to HIV1 gp160 expressing CHO cells by cell-cell fusion assay.
As for `Cc1ccnc(C)c1C(=O)NCCN1CCCC(CC(c2ccccc2)c2ccccc2)C1` (racemic) [rac-N-(2-(3-(2,2-diphenylethyl)piperidin-1-yl)ethyl)-2,4-dimethylnicotinamide], the IC50 (commonly the concentration at which inhibition is half-maximal) stood at 56 nM.

For the molecule `Cc1ccnc(C)c1C(=O)N1CC(N(C)C2CCN(C(c3ccccc3)c3ccccc3)CC2)C1` [(3-((1-benzhydrylpiperidin-4-yl)(methyl)amino)azetidin-1-yl)(2,4-dimethylpyridin-3-yl)methanone], the IC50 is 102 nM.

Take `Cc1ccnc(C)c1C(=O)N1CCC(N2C3CCC2CN(C(c2ccccc2)c2ccccc2)C3)CC1` [(4-(3-benzhydryl-3,8-diazabicyclo[3.2.1]octan-8-yl)piperidin-1-yl)(2,4-dimethylpyridin-3-yl)methanone]: the IC50 was 41 nM.

For `Cc1ccnc(C)c1C(=O)N1CCC(N2CC3CCC(C2)N3C(c2ccccc2)c2ccccc2)CC1` [(4-(8-benzhydryl-3,8-diazabicyclo[3.2.1]octan-3-yl)piperidin-1-yl)(2,4-dimethylpyridin-3-yl)methanone], the IC50 was found to be 313 nM.

`Cc1ccnc(C)c1C(=O)N1CCC(N(C)C2CN(C(c3ccccc3)c3ccccc3)C2)CC1` [(4-((1-benzhydrylazetidin-3-yl)(methyl)amino)piperidin-1-yl)(2,4-dimethylpyridin-3-yl)methanone]: the IC50 turned out to be 24 nM.

As to `Cc1cccc(C)c1C(=O)N1CCC(N2CC[C@@H](N(Cc3ccccc3)C(=O)C3CC3)C2)CC1` [(R)-N-benzyl-N-(1-(1-(2,6-dimethylbenzoyl)piperidin-4-yl)pyrrolidin-3-yl)cyclopropanecarboxamide], the IC50 was 1 nM.

Regarding `Cc1cccc(C)c1C(=O)N1CCC(N2CC[C@H](N(Cc3ccccc3)C(=O)C3CC3)C2)CC1` [(S)-N-benzyl-N-(1-(1-(2,6-dimethylbenzoyl)piperidin-4-yl)pyrrolidin-3-yl)cyclopropanecarboxamide], the IC50 came out at 1230 nM.

With `CC(=O)NC(c1ccccc1)C1CN(C2CCN(C(=O)c3c(C)cccc3C)CC2)C1` (stereo not drawn) [N-((1-(1-(2,6-dimethylbenzoyl)piperidin-4-yl)azetidin-3-yl)(phenyl)methyl)acetamide], the half-inhibitory concentration (IC50) stood at 2490 nM.

Turning to `Cc1cccc(C)c1C(=O)N1CCC(N2CCC(CNC(=O)C3CC3)(Cc3ccccc3)CC2)CC1` [N-((4-benzyl-1'-(2,6-dimethylbenzoyl)-1,4'-bipiperidin-4-yl)methyl)cyclopropanecarboxamide], the IC50 was 145 nM.

For `Cc1cccc(C)c1C(=O)N1CCC(N2CCC(N(Cc3ccccc3)C(=O)C3CCC3)CC2)CC1` [N-benzyl-N-(1'-(2,6-dimethylbenzoyl)-1,4'-bipiperidin-4-yl)cyclobutanecarboxamide], the half-maximal inhibitory concentration (IC50) turned out to be 3 nM.

Regarding `Cc1cccc(C)c1C(=O)N1CCC(C)(N2CCC(N(Cc3ccccc3)C(=O)C3CC3)CC2)CC1` [N-benzyl-N-(1'-(2,6-dimethylbenzoyl)-4'-methyl-1,4'-bipiperidin-4-yl)cyclopropanecarboxamide], the 50% inhibitory concentration (IC50) is 0.5 nM.

As for `Cc1cccc(C)c1C(=O)N1CCC(N2CC(N(Cc3ccccc3)C(=O)C3CC3)C2)CC1` [N-benzyl-N-(1-(1-(2,6-dimethylbenzoyl)piperidin-4-yl)azetidin-3-yl)cyclopropanecarboxamide], the IC50 is 5800 nM.

With `Cc1cccc(C)c1C(=O)N1[C@@H]2CC[C@H]1C[C@H](N1CC[C@@H](N(Cc3ccccc3)C(=O)C3CC3)C1)C2` [exo-N-benzyl-N-((R)-1-(8-(2,6-dimethylbenzoyl)-8-azabicyclo[3.2.1]octan-3-yl)pyrrolidin-3-yl)cyclopropanecarboxamide], the IC50 is 1 nM.

The record behind these values is BindingDB's records for doi:10.1016/j.bmcl.2009.01.012 (Pfizer, 2009).
